Source: the Kinase Knowledgebase extract (Sharma et al. 2016)

The compounds below were run against PIK3CA (human) (UniProt P42336) (assay: Assessment of PIK3CA Kinase Activity).
Chain of PIK3CA (human) (P42336 whole entry, looked up): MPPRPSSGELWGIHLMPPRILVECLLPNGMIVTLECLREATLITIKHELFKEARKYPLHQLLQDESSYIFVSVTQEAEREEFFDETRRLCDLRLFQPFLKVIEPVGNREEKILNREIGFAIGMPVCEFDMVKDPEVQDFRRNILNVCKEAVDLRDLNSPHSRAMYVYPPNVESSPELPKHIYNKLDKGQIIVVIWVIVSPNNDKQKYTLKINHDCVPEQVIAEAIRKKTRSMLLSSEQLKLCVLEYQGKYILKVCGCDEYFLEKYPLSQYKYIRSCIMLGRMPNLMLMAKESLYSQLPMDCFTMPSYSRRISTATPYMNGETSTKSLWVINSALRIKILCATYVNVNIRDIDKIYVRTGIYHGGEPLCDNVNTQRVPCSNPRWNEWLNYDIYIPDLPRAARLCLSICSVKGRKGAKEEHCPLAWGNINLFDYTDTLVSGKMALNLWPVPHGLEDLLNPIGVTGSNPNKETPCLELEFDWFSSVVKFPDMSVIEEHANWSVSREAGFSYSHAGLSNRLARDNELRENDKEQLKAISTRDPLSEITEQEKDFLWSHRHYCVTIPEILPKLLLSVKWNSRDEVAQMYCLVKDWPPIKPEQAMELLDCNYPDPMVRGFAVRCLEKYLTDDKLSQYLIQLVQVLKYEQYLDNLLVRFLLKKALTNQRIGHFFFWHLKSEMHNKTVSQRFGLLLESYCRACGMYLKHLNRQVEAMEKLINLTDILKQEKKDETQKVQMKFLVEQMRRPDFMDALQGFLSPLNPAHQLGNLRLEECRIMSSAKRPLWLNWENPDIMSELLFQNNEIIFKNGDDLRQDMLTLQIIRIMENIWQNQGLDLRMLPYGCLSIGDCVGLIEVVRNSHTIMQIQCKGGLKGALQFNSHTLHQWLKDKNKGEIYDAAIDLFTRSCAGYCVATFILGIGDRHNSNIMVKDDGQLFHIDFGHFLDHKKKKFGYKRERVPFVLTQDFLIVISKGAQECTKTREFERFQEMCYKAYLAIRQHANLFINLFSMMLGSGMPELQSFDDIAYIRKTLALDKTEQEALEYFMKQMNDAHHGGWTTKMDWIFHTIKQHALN

IC50, < 1000 nM:
CC(C)n1ncnc1-n1cc2c(n1)-c1cc(C(=O)N3CCNCC3)ccc1OCC2
CC(C)n1ncnc1-n1cc2c(n1)-c1cc(C(=O)Nc3cnn(CCO)c3)ccc1OCC2
CC(C)n1nc(N)nc1-c1cn2c(n1)-c1cc(-c3ccc(Cl)cc3)ccc1OCC2
NC(=O)C1CC1c1ccc2c(c1)OCCn1cc(-c3ncnn3CC(F)(F)F)nc1-2 (stereo not drawn)
Cc1nc(-c2cn3c(n2)-c2cnc(N4C[C@H](F)C[C@H]4C(N)=O)cc2OCC3)n(C(C)C)n1
CNC(=O)CN1CCC(c2ccc3c(c2)OCCn2cc(-c4ncnn4C(C)C)nc2-3)CC1
CC(C)n1ncnc1-c1cn2c(n1)-c1ccc(-c3cnn(C(C)(C)C(N)=O)c3)cc1OCC2
CC(C)n1nc(CO)nc1-c1cn2c(n1)-c1cnc(N3CC(F)(F)C3)cc1OCC2
Cc1nc(-c2cn3c(n2)-c2cnc(N)cc2OCC3)n(CC(F)(F)F)n1
Cc1nc(-c2cn3c(n2)-c2ccc(C#N)cc2OCC3)n(C(C)C)n1
CC(C)N(CCO)C(=O)c1cc2n(n1)-c1ccccc1OCC2
COc1ccc(CNc2cc3c(cn2)-c2nc(-c4nc(C)nn4CC(F)(F)F)cn2CCO3)cc1OC
C[C@H](Oc1ccc2c(c1)OCCn1cc(-c3ncnn3C(C)(C)C)nc1-2)C(N)=O
CC(=O)Nc1ccc(-c2ccc3c(c2)OCCn2cc(-c4nc(C)nn4C(C)C)nc2-3)cn1
CCOC(=O)C(C)(C)n1cc(-c2ccc3c(c2)OCCn2cc(-c4nc(C)nn4C(C)C)nc2-3)cn1
CC(C)n1ncnc1-c1cn2c(n1)-c1cnc(N3CCN(CC(N)=O)CC3)cc1OCC2
Cc1nc(-c2ccc3c(c2)OCCn2cc(-c4ncnn4C(C)C)nc2-3)cn1CC(C)(C)O
CC(C)n1ncnc1-c1cn2c(n1)-c1ccc(O[C@@H](C)C(=O)O)cc1OCC2
Fc1ccc(-n2ncnc2-c2cn3c(n2)-c2cnc(NCCCn4ccnc4)cc2OCC3)c(F)c1
CC(C)n1ncnc1-c1cn2c(n1)-c1cnc(N3C[C@@H](O)C[C@H]3C(N)=O)cc1OCC2
CC(C)n1ncnc1-c1cn2c(n1)-c1ccc(OCC3(N)COC3)cc1OCC2
CC(C)n1ncnc1-c1cn2c(n1)-c1cnc(N3C[C@H](C#N)C[C@H]3C(N)=O)cc1OCC2
CC(C)n1ncnc1-c1cn2c(n1)-c1ccc(N3CCCCC3C(N)=O)cc1OCC2 (stereo not drawn)
N#Cc1ccc2c(c1)-c1nc(-c3nc(N)nn3CC(F)(F)F)cn1CCO2
CC(C)n1ncnc1-c1cn2c(n1)-c1ccc(N)cc1OCC2
CC(C)n1ncnc1-c1cn2c(n1)-c1ccc(OC3COC3)cc1OCC2
CC(C)n1ncnc1-c1cn2c(n1)-c1ccc(COC(N)=O)cc1OCC2
COC(=O)c1ccc2c(c1)OCCn1cc(-c3ncnn3CC(F)(F)F)nc1-2
Fc1ccc(-n2ncnc2-c2cn3c(n2)-c2cnc(NCc4ncc[nH]4)cc2OCC3)c(F)c1
Cc1nc(-c2cn3c(n2)-c2cnc(NCC(N)=O)cc2OCC3)n(CC(F)(F)F)n1
Nc1nc(-c2cn3c(n2)-c2cc(-c4ccccc4)ccc2OCC3)n(-c2ccccc2Cl)n1
CC(C)n1ncnc1-c1cn2c(n1)-c1ccc(-c3ccccc3S(C)(=O)=O)cc1OCC2
COC(=O)C(C)Cn1cc(-c2ccc3c(c2)OCCn2cc(-c4nc(C)nn4C(C)C)nc2-3)cn1 (stereo not drawn)
NC(=O)[C@@H]1CCN1c1ccc2c(c1)OCCn1cc(-c3ncnn3CC(F)(F)F)nc1-2
Cc1ccc2c(c1)OCCn1cc(-c3nc(C)nn3C(C)C)nc1-2
CC(C)n1ncnc1-c1cn2c(n1)-c1cc(-c3ccc[nH]c3=O)ccc1OCC2
Cc1nc(-c2cn3c(n2)-c2cc(-c4cc[nH]c(=O)c4)ccc2OCC3)n(C(C)C)n1
CC(C)n1ncnc1-c1cn2c(n1)-c1ccc(C3C(=O)NNC3=O)cc1OCC2
